Source: patent US3960877A, “N-monosubstituted-2,3-pyridinedicarboxamides, and related compounds” (priority 1974, dated 1976)

What was measured:
Assay type in all cases: in vivo
[1] = test system: Alfalfa; experiment: Preemergence herbicidal activity, % control of plant growth; settings: Medicago sativa, pre-emergence, 504 h, 16 lb/acre, about 3 weeks
Source text: (§1) By "preemergence" is meant that the compound is applied to the soil prior to emergence of the weed species sought to be controlled. This term, as used herein, also means the application of the herbicidal compounds falling within the scope of this disclosure to areas wherein useful or desirable plants are either growing or have been sown, but where the undesirable plants sought to be controlled have not as yet emerged.
(§2) In using the compound, seeds of the types of plants set forth in Table II were sown in fresh soil. In the preemergence test the soil was sprayed with a solution of the test compound immediately after the seeds were planted, and before any noticeable growth developed. The solution was about a 2 percent by weight solution of the compound in acetone and/or alcohol. The compound was applied at the rate of 16 pounds per acre of soil surface.
(§3) Approximately 3 weeks after spray application, the herbicidal activity of the compound was determined by visual observation of the treated area in comparison with untreated control areas. These observations are reported below in Table II wherein the average activity rating is reported as the percent control of plant growth.
(§4) *Preemergence test: compound applied at rate of 16 lb/acre

[2] = test system: Cheatgrass; experiment: as above; settings: Bromus tectorum, pre-emergence, 504 h, 16 lb/acre, about 3 weeks
Source text: as §1, §2, §3, §4

[3] = test system: Chickweed; experiment: as above; settings: pre-emergence, 504 h, 16 lb/acre, about 3 weeks
Source text: as §1, §2, §3, §4

[4] = test system: Corn; experiment: as above; settings: Zea mays, pre-emergence, 504 h, 16 lb/acre, about 3 weeks
Source text: as §1, §2, §3, §4

[5] = test system: Crabgrass; experiment: as above; settings: Digitaria sanguinalis, pre-emergence, 504 h, 16 lb/acre, about 3 weeks
Source text: as §1, §2, §3, §4

[6] = test system: Cucumber; experiment: as above; settings: Cucumis sativus, pre-emergence, 504 h, 16 lb/acre, about 3 weeks
Source text: as §1, §2, §3, §4

[7] = test system: Curled Dock; experiment: as above; settings: pre-emergence, 504 h, 16 lb/acre, about 3 weeks
Source text: as §1, §2, §3, §4

[8] = test system: Foxtail; experiment: as above; settings: Setaria, pre-emergence, 504 h, 16 lb/acre, about 3 weeks
Source text: as §1, §2, §3, §4

[9] = test system: Johnsongrass; experiment: as above; settings: Sorghum halepense, pre-emergence, 504 h, 16 lb/acre, about 3 weeks
Source text: as §1, §2, §3, §4

[10] = test system: Lambsquarters; experiment: as above; settings: Chenopodium album, pre-emergence, 504 h, 16 lb/acre, about 3 weeks
Source text: as §1, §2, §3, §4

[11] = test system: Nutgrass; experiment: as above; settings: pre-emergence, 504 h, 16 lb/acre, about 3 weeks
Source text: as §1, §2, §3, §4

[12] = test system: Pigweed; experiment: as above; settings: Amaranthus retroflexus, pre-emergence, 504 h, 16 lb/acre, about 3 weeks
Source text: as §1, §2, §3, §4

[13] = test system: Snapbeans; experiment: as above; settings: pre-emergence, 504 h, 16 lb/acre, about 3 weeks
Source text: as §1, §2, §3, §4

[14] = test system: Velvetleaf; experiment: as above; settings: Abutilon theophrasti, pre-emergence, 504 h, 16 lb/acre, about 3 weeks
Source text: as §1, §2, §3, §4

[15] = test system: Wild Oats; experiment: as above; settings: Avena fatua, pre-emergence, 504 h, 16 lb/acre, about 3 weeks
Source text: as §1, §2, §3, §4

[16] = test system: Yellow Rocket; experiment: as above; settings: pre-emergence, 504 h, 16 lb/acre, about 3 weeks
Source text: as §1, §2, §3, §4

[17] = test system: Alfalfa; experiment: Postemergence herbicidal activity, % control of plant growth; settings: Medicago sativa, post-emergence, 264 h, 8 lb/acre, about 11 days
Source text: (§5) By the term "postemergence" is meant that the compound is applied to the plant sought to be controlled after it has emerged from the soil surface. This term is also used to describe the application of herbicidally active compounds to soil surface in and around growing plants sought to be controlled for purposes of effecting root absorption by the undesirable plant species.
(§6) In the postemergence test the soil and developing plants were sprayed approximately 2 weeks after the seeds were sown. The compound was applied at the rate of 8 pounds per acre from about a 2 percent by weight solution of the test compound in acetone and/or alcohol. The postemergence herbicidal activity was measured in the same way as the preemergence activity; i.e. visual observation approximately 11 days after spraying, and expressed as the percent control of plant growth.
(§7) **Postemergence test: compound applied at rate of 8 lb/acre

[18] = test system: Barnyard Grass; experiment: as above; settings: Echinochloa crus-galli, post-emergence, 264 h, 8 lb/acre, about 11 days
Source text: as §5, §6, §7

[19] = test system: Cheatgrass; experiment: as above; settings: Bromus tectorum, post-emergence, 264 h, 8 lb/acre, about 11 days
Source text: as §5, §6, §7

[20] = test system: Chickweed; experiment: as above; settings: post-emergence, 264 h, 8 lb/acre, about 11 days
Source text: as §5, §6, §7

[21] = test system: Corn; experiment: as above; settings: Zea mays, post-emergence, 264 h, 8 lb/acre, about 11 days
Source text: as §5, §6, §7

[22] = test system: Crabgrass; experiment: as above; settings: Digitaria sanguinalis, post-emergence, 264 h, 8 lb/acre, about 11 days
Source text: as §5, §6, §7

[23] = test system: Cucumber; experiment: as above; settings: Cucumis sativus, post-emergence, 264 h, 8 lb/acre, about 11 days
Source text: as §5, §6, §7

[24] = test system: Curled Dock; experiment: as above; settings: post-emergence, 264 h, 8 lb/acre, about 11 days
Source text: as §5, §6, §7

[25] = test system: Foxtail; experiment: as above; settings: Setaria, post-emergence, 264 h, 8 lb/acre, about 11 days
Source text: as §5, §6, §7

[26] = test system: Johnsongrass; experiment: as above; settings: Sorghum halepense, post-emergence, 264 h, 8 lb/acre, about 11 days
Source text: as §5, §6, §7

[27] = test system: Lambsquarters; experiment: as above; settings: Chenopodium album, post-emergence, 264 h, 8 lb/acre, about 11 days
Source text: as §5, §6, §7

[28] = test system: Nutgrass; experiment: as above; settings: post-emergence, 264 h, 8 lb/acre, about 11 days
Source text: as §5, §6, §7

[29] = test system: Pigweed; experiment: as above; settings: Amaranthus retroflexus, post-emergence, 264 h, 8 lb/acre, about 11 days
Source text: as §5, §6, §7

[30] = test system: Snapbeans; experiment: as above; settings: post-emergence, 264 h, 8 lb/acre, about 11 days
Source text: as §5, §6, §7

[31] = test system: Velvetleaf; experiment: as above; settings: Abutilon theophrasti, post-emergence, 264 h, 8 lb/acre, about 11 days
Source text: as §5, §6, §7

[32] = test system: Wild Oats; experiment: as above; settings: Avena fatua, post-emergence, 264 h, 8 lb/acre, about 11 days
Source text: as §5, §6, §7

[33] = test system: Yellow Rocket; experiment: as above; settings: post-emergence, 264 h, 8 lb/acre, about 11 days
Source text: as §5, §6, §7

[34] = test system: Barnyard Grass; experiment: Preemergence herbicidal activity, % control of plant growth; settings: Echinochloa crus-galli, pre-emergence, 504 h; barnyard grass; 16 lb/acre; about 3 weeks
Source text: as §1, §2, §3, §4

SMILES | pest or weed control at 17933.6 g/ha [1] [%] | pest or weed control at 17933.6 g/ha [2] [%] | pest or weed control at 17933.6 g/ha [3] [%] | plant injury at 17933.6 g/ha [4] [%] | pest or weed control at 17933.6 g/ha [5] [%] | pest or weed control at 17933.6 g/ha [6] [%] | pest or weed control at 17933.6 g/ha [7] [%] | pest or weed control at 17933.6 g/ha [8] [%] | pest or weed control at 17933.6 g/ha [9] [%] | pest or weed control at 17933.6 g/ha [10] [%] | pest or weed control at 17933.6 g/ha [11] [%] | pest or weed control at 17933.6 g/ha [12] [%] | pest or weed control at 17933.6 g/ha [13] [%] | pest or weed control at 17933.6 g/ha [14] [%] | pest or weed control at 17933.6 g/ha [15] [%] | pest or weed control at 17933.6 g/ha [16] [%] | pest or weed control at 8966.8 g/ha [17] [%] | pest or weed control at 8966.8 g/ha [18] [%] | pest or weed control at 8966.8 g/ha [19] [%] | pest or weed control at 8966.8 g/ha [20] [%] | other results
O=c1[nH]c2cccnc2c(=O)n1C1CCCCCCC1 [3-cyclooctyl-pyrido[3,2-d]pyrimidine-2,4(1H,3H)-dione] | 100 | 100 | 100 | 50 | 100 | 90 | 100 | 100 | 100 | 100 | 20 | 100 | 100 | 100 | 100 | 100 | 60 | 90 | 30 | 100 | plant injury at 8966.8 g/ha [21]: 0%; pest or weed control at 8966.8 g/ha [22]: 100%; pest or weed control at 8966.8 g/ha [23]: 100%; pest or weed control at 8966.8 g/ha [24]: 100%; pest or weed control at 8966.8 g/ha [25]: 80%; pest or weed control at 8966.8 g/ha [26]: 100%; pest or weed control at 8966.8 g/ha [27]: 100%; pest or weed control at 8966.8 g/ha [28]: 40%; pest or weed control at 8966.8 g/ha [29]: 100%; pest or weed control at 8966.8 g/ha [30]: 90%; pest or weed control at 8966.8 g/ha [31]: 100%; pest or weed control at 8966.8 g/ha [32]: 40%; pest or weed control at 8966.8 g/ha [33]: 100%
O=c1[nH]c2cccnc2c(=O)n1C1CC1 [3-cyclopropyl pyrido[3,2-d]pyrimidine-2,4(1H,3H)-dione] | 100 | 100 | 100 | 10 | 100 | 100 | 100 | 10 | 10 | 100 | 0 | 100 | 100 | 100 | 80 | 100 | 0 | 0 | 0 | 100 | pest or weed control at 17933.6 g/ha [34]: 10%; plant injury at 8966.8 g/ha [21]: 0%; pest or weed control at 8966.8 g/ha [22]: 10%; pest or weed control at 8966.8 g/ha [23]: 20%; pest or weed control at 8966.8 g/ha [24]: 10%; pest or weed control at 8966.8 g/ha [25]: 0%; pest or weed control at 8966.8 g/ha [26]: 0%; pest or weed control at 8966.8 g/ha [27]: 100%; pest or weed control at 8966.8 g/ha [28]: 0%; pest or weed control at 8966.8 g/ha [29]: 90%; pest or weed control at 8966.8 g/ha [30]: 0%; pest or weed control at 8966.8 g/ha [31]: 0%; pest or weed control at 8966.8 g/ha [33]: 100%
O=c1[nH]c2nccnc2c(=O)n1C1CCCCCCC1 [Lumazine, 3-cyclooctyl] | 100 | 100 | 100 | 30 | 90 | 100 | 100 | 40 | 90 | 100 | 30 | 100 | 100 | 100 | 100 | 100 | 10 | 90 | 0 | 100 | pest or weed control at 17933.6 g/ha [34]: 70%; plant injury at 8966.8 g/ha [21]: 10%; pest or weed control at 8966.8 g/ha [22]: 100%; pest or weed control at 8966.8 g/ha [23]: 100%; pest or weed control at 8966.8 g/ha [24]: 100%; pest or weed control at 8966.8 g/ha [25]: 50%; pest or weed control at 8966.8 g/ha [26]: 100%; pest or weed control at 8966.8 g/ha [27]: 100%; pest or weed control at 8966.8 g/ha [28]: 10%; pest or weed control at 8966.8 g/ha [30]: 100%; pest or weed control at 8966.8 g/ha [31]: 100%; pest or weed control at 8966.8 g/ha [32]: 10%; pest or weed control at 8966.8 g/ha [33]: 100%
CC(C)n1c(=O)[nH]c2nccnc2c1=O [Lumazine, 3-isopropyl] | 100 | 10 | 60 | 10 | 70 | 100 | 100 | 10 | 70 | 100 | 0 | 100 | 90 | 100 | 10 | 100 | 0 | 0 | 0 | 0 | pest or weed control at 17933.6 g/ha [34]: 0%; plant injury at 8966.8 g/ha [21]: 0%; pest or weed control at 8966.8 g/ha [22]: 0%; pest or weed control at 8966.8 g/ha [23]: 10%; pest or weed control at 8966.8 g/ha [24]: 0%; pest or weed control at 8966.8 g/ha [25]: 0%; pest or weed control at 8966.8 g/ha [26]: 0%; pest or weed control at 8966.8 g/ha [27]: 40%; pest or weed control at 8966.8 g/ha [28]: 0%; pest or weed control at 8966.8 g/ha [29]: 0%; pest or weed control at 8966.8 g/ha [30]: 30%; pest or weed control at 8966.8 g/ha [31]: 0%; pest or weed control at 8966.8 g/ha [32]: 0%
